Reference: US11827622B2, “Crystalline forms of imidacloprid and methods of use thereof” (New York University, priority 2020, dated 2023)

Tests used:
[1] = system: Anopheles quadrimaculatus; assay: Lethality (knockdown time) on contact with IMI polymorph microcrystals in petri dish, Anopheles mosquitoes; format: in vivo; details: Anopheles females; median knockdown time; 0.100 mg microcrystals per 100 mm dish
Experimental: (§1) Lethality measurements for IMI polymorphs. Microcrystals of IMI Forms I, IV, VI, and IX were prepared by grinding respective single crystals using a mortar and pestle. Their compositions were then analyzed by powder X-ray diffraction (PXRD). Lethality measurements were performed in triplicate for each solid-state form, each accompanied by three controls (no insecticide). 2.0 mg of microcrystals was added to a 35 mm diameter polystyrene petri dish, which was subsequently shaken to disperse the microcrystals throughout the petri dish. Microcrystals was added to a polystyrene petri dish (2.000 mg microcrystals per 35 mm diameter dish for fruit flies; 0.100 mg microcrystals per 100 mm diameter dish for mosquitoes), which was subsequently shaken to disperse the microcrystals throughout the petri dish. Adult mosquitoes (Ae. aegypti, A. quadrimaculatus or C. quinquefasciatus) or fruit flies (D. melanogaster) were sedated with carbon dioxide and 30 female mosquitoes or 20 flies were transferred to each petri dish. The top of the dish was then placed over the bottom and the motion of the insects was recorded with a video camera (Sony HDR-CX455). The knockdown time was measured for each individual insect, with knockdown associated with an insect laying on the bottom surface of the petri dish in a supine position without moving from its original position after 10 seconds.
(§2) Statistical analyses. Logistic regression of knockdown-time curves was preformed to obtain the median knockdown time (KT50) of the test flies and mosquitoes, the 95% confidence intervals (CI), slopes, and standard errors (SE) using Qcal software.

[2] = system: Drosophila melanogaster; assay: Lethality (knockdown time) on contact with IMI polymorph microcrystals in petri dish, fruit flies; format: in vivo; details: for KT50 (95% CI): median knockdown time, 2.0 mg microcrystals per 35 mm dish; for times faster-acting than Form I: ratio of KT50 values
Experimental: as §1, §2
IMI Forms IX, VI, IV were selected for lethality comparison with the commercial Form I, collectively representing a quartet spanning a wide range of free energies. […] A video camera was used to record the knockdown times—a proxy for lethality—for each insect. KT50 values, the times required for 50% of the insects to become immobile and supine, were calculated by logistic regression of knockdown-time curves (FIGS. 34A-34P). Shorter KT50 values correspond to greater lethality. Accordingly, Forms IX, VI and IV were 5.7, 2.5 and 1.8 times faster-acting than Form I.

[3] = system: Aedes aegypti; assay: Lethality (knockdown time) on contact with IMI polymorph microcrystals in petri dish, Aedes mosquitoes; format: in vivo; details: for KT50 (95% CI): Aedes females, median knockdown time, 0.100 mg microcrystals per 100 mm dish
Experimental: as §1, §2

[4] = system: Culex quinquefasciatus; assay: Lethality (knockdown time) on contact with IMI polymorph microcrystals in petri dish, Culex mosquitoes; format: in vivo; details: Culex females; median knockdown time; 0.100 mg microcrystals per 100 mm dish
Experimental: as §1, §2

[5] = format: physicochemical
Experimental: IMI polymorphs exposed in open air at ambient temperature are typically stable for at least 6 months. Although the polymorphic forms were distinguishable by visual inspection (from their interference colors between crossed polarizers and morphologies), their identity and any phase transformations were always corroborated by micro-Raman spectroscopy and PXRD. Form IX held at 95° C. on a microscope hot stage in air transformed to Form V in 3 min, which then converted to Form I at 110° C. in 2 min. Form I also can nucleate directly on the surface of Form IX at T>70° C. Form IX crystals confined between glass slides nucleate Form I, V or VI within Form IX at 80° C. within 1 min. […] Form VI transforms to III when they were in contact at 110° C.

[6] = system: Aedes; assay: Lethality measurement of IMI vapor, Aedes; format: in vivo, Aedes aegypti
Experimental: (§3) Crystalline insecticide was added to an opened glass vial tapped to the bottom of a petri dish, which was subsequently covered with porous polyester substrate. Female Aedes and Drosophila were sedated with carbon dioxide and were transferred onto the porous substrate. An inverted petri dish was then placed over the polyester substrate to seal the assembly. The motion of the Aedes and Drosophila was recorded with a video camera. An opened glass vial containing 2.0 mg IMI microcrystals was tapped to the bottom of the petri dish (FIGS. 35A-35E).

[7] = system: Drosophila; assay: Lethality measurement of IMI vapor, Drosophila; format: in vivo, Drosophila melanogaster
Experimental: as §3

[8] = 2.0 mg IMI microcrystals in opened glass vial under porous polyester substrate

O=[N+]([O-])N=C1NCCN1Cc1ccc(Cl)nc1 [Form IV, 1-[(6-chloro-3-pyridinyl)-methyl]-N-nitro-2-imidazolidinimine]
KT50 (95% CI) [1]: 220 (216-224) min
KT50 (95% CI) [2]: 321 (302-343) min
times faster-acting than Form I [2]: 1.8 times
KT50 (95% CI) [3]: 335 (329-342) min
KT50 (95% CI) [4]: 311 (309-313) min

O=[N+]([O-])NC1=NCCN1Cc1ccc(Cl)nc1 [Form I, 1-[(6-chloro-3-pyridinyl)-methyl]-N-nitro-2-imidazolidinimine, reference compound]
KT50 (95% CI) [1]: 524 (515-534) min
KT50 (95% CI) [2]: 562 (536-589) min
thermodynamic stability [5]: the most thermodynamically stable crystal form
KT50 (95% CI) [3]: 643 (621-664) min
KT50 (95% CI) [4]: 573 (568-581) min

O=[N+]([O-])N=C1NCCN1Cc1ccc(Cl)nc1 [Form V, 1-[(6-chloro-3-pyridinyl)-methyl]-N-nitro-2-imidazolidinimine]
time of conversion to Form I ([5]; at 110° C.): 2 min

O=[N+]([O-])NC1=NCCN1Cc1ccc(Cl)nc1 [Form IX, 1-[(6-chloro-3-pyridinyl)-methyl]-N-nitro-2-imidazolidinimine]
KT50 (95% CI) [1]: 84 (82-86) min
KT50 (95% CI) [2]: 99 (93-105) min
times faster-acting than Form I [2]: 5.7 times
kinetic stability against transformation to other polymorphs [5]: kinetically stable against transformations to other polymorphs
time to nucleation of Form I, V or VI within the form ([5]; crystals confined between glass slides, 80° C.): ≤ 1 min
time of transformation to Form V ([5]; held at 95° C. on microscope hot stage in air): 3 min
KT50 (95% CI) [3]: 70 (68-71) min
KT50 (95% CI) [4]: 89 (88-91) min

O=[N+]([O-])N=C1NCCN1Cc1ccc(Cl)nc1 [Form VI, 1-[(6-chloro-3-pyridinyl)-methyl]-N-nitro-2-imidazolidinimine]
KT50 (95% CI) [1]: 143 (141-144) min
KT50 (95% CI) [2]: 223 (210-238) min
times faster-acting than Form I [2]: 2.5 times
KT50 (95% CI) [3]: 152 (147-157) min
KT50 (95% CI) [4]: 192 (189-195) min

O=[N+]([O-])N=C1NCCN1Cc1ccc(Cl)nc1 [IMI, 1-[(6-chloro-3-pyridinyl)-methyl]-N-nitro-2-imidazolidinimine]
time within which all insects were knocked down ([2]; direct contact with the same amount of IMI microcrystals in petri dishes): ≤ 10 h
effect of exposure to IMI vapor [6, 8]: remained viable with no nerve firing symptoms
effect of exposure to IMI vapor ([6]; after 12 hours): remained viable with no nerve firing symptoms
effect of exposure to IMI vapor [7, 8]: remained viable with no nerve firing symptoms
effect of exposure to IMI vapor ([7]; after 12 hours): remained viable with no nerve firing symptoms
time within which all insects were knocked down ([3]; Aedes, direct contact with the same amount of IMI microcrystals in petri dishes): ≤ 10 h
